Data: ChEMBL document CHEMBL1201862, “PubChem BioAssay data set” (2004)
Activity calls are given as the source filed them.

What was measured:
HEK293 [1] = test: cells; settings: Homo sapiens
HEK293 [2] = test: cells; settings: Homo sapiens; remark: listed apart in the source
[3] = target: T1, Alkaline phosphatase, tissue-nonspecific isozyme (Homo sapiens, UniProt P05186); test: TNAP enzyme inhibition by screening hits, dose response, selectivity assay for mouse IAP inhibitor project, biochemical, human TNAP, uHTS hits (AID 488906); assay type: functional
T1 sequence (P05186 whole entry): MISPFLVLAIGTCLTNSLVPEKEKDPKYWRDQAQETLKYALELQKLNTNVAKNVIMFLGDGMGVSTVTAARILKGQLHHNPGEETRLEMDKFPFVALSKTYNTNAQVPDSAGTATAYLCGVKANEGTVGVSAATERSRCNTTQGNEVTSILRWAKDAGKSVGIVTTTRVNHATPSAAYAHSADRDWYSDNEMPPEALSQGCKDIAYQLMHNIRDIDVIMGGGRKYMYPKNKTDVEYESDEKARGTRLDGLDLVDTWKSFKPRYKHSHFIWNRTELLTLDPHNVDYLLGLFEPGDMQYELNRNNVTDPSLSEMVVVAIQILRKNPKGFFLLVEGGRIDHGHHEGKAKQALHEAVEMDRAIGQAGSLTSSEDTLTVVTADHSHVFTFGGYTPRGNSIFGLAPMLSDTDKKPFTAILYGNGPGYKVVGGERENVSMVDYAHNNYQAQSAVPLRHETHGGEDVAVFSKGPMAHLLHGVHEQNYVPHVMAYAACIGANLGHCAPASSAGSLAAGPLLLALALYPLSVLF

[4] = target: Intestinal-type alkaline phosphatase (Homo sapiens, UniProt P09923); test: inhibition of human intestinal alkaline phosphatase – biochemical, dose response (AID 488876); assay type: functional
Intestinal-type alkaline phosphatase (Homo sapiens, UniProt P09923), sequence (P09923 whole entry): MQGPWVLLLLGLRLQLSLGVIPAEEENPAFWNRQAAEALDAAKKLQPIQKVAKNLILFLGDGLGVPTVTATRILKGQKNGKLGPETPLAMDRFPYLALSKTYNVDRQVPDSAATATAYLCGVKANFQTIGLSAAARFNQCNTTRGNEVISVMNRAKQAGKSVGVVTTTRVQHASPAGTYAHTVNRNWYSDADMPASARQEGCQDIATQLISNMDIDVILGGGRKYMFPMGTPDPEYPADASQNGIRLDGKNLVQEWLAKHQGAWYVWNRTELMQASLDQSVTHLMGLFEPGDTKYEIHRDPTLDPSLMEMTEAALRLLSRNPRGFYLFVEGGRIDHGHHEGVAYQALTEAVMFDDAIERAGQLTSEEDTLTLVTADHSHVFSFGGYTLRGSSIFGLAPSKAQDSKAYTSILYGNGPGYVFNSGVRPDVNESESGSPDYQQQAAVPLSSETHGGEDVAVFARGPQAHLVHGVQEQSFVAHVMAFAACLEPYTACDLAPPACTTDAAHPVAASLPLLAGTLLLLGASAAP

[5] = target: Intestinal-type alkaline phosphatase (Mus musculus, UniProt P24822); test: PubChem AID 488785; assay type: functional
Intestinal-type alkaline phosphatase (Mus musculus, UniProt P24822), sequence (P24822 whole entry): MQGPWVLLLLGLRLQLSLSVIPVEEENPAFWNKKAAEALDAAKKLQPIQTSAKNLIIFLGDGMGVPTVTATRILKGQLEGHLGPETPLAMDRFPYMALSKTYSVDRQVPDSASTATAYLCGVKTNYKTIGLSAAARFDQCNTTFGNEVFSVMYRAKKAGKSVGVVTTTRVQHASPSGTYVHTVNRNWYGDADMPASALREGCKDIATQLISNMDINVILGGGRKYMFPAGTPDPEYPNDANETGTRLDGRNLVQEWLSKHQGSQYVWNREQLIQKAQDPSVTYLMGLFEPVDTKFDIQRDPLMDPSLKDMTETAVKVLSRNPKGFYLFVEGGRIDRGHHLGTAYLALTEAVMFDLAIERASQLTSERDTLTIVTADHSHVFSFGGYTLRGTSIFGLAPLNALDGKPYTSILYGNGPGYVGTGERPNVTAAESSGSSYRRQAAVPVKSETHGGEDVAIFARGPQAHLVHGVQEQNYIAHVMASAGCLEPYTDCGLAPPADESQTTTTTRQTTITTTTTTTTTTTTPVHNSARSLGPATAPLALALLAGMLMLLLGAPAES

INS1 = test: beta cell apoptosis inhibitors, cytokine rescue, dose response, luminescence, retest (AID 449756); assay type: functional, cell-based; settings: Rattus norvegicus;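 also: cell death triggered by IL-1 beta plus TNF-alpha plus IFN-gamma mixture; protective hits raise ATP signal compared with cytokine alone wells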
[6] = cytotoxicity in MIN6 insulinoma cells, dose response, cytotoxicity control, cell-based, mouse insulinoma (AID 2122); assay type: functional;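 also: confirmatory high-throughput counterscreen run to flag cytotoxic compounds; mouse MIN-6 beta cells carrying an insulin promoter eGFP reporter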
[7] = cytotoxicity toward NIH3T3 fibroblasts, dose response, counter-screen, cell-based, ATP luminescence, mouse fibroblasts (AID 2010); assay type: functional;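 also: cells exposed to compound for about 90 hours before reading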
[8] = insulin promoter down-regulators in MIN6 cells, imaging, high-content screening, mouse beta cells (AID 1628); assay type: functional
[9] = target: DNA dC->dU-editing enzyme APOBEC-3A (Homo sapiens, UniProt P31941); test: Dose Response confirmation of small molecule APOBEC3A DNA Deaminase Inhibitors via a fluorescence-based single-stranded DNA deaminase assay. [Related pubchem assays (depositor defined):AID493011, AID493024]; assay type: functional
DNA dC->dU-editing enzyme APOBEC-3A, sequence (P31941 whole entry): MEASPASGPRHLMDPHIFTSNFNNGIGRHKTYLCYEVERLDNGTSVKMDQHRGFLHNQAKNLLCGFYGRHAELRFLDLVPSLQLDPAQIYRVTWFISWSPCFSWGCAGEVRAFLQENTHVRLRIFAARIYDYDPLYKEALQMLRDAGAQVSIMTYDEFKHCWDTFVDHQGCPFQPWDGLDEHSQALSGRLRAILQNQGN

[10] = target: DNA dC->dU-editing enzyme APOBEC-3G (Homo sapiens, UniProt Q9HC16); assay type: functional;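 also: Dose-response counterscreen measuring inhibition of APOBEC3G DNA deaminase activity, run while confirming APOBEC3A inhibitors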
DNA dC->dU-editing enzyme APOBEC-3G, sequence (Q9HC16 whole entry): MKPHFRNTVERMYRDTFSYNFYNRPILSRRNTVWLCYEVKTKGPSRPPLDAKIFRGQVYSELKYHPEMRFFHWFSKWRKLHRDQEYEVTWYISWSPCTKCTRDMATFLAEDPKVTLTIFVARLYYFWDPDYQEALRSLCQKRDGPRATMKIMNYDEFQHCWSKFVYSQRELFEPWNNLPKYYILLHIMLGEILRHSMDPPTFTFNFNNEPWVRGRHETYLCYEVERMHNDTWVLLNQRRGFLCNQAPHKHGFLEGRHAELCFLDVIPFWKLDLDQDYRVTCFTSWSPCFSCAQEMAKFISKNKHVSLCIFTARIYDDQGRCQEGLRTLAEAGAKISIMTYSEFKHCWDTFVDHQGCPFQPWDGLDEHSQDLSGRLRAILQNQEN

[11] = inhibitors of intracellular T. cruzi replication, confirmation, NIH3T3 host cells, beta-gal luminescence (AID 2044); assay type: functional, cell-based;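 also: intracellular parasites grown in NIH/3T3 mouse fibroblasts as host cells; luminescent beta-galactosidase reporter signal from transgenic T. cruzi replicating inside host cells; inhibitors lower the luminescence signal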
[12] = target: T2, Zinc finger protein mex-5 (Caenorhabditis elegans, UniProt Q9XUB2); test: MEX-5/TCR-2 RNA interaction inhibitors, dose response, biochemical, C. elegans, fluorescence polarization (AID 1960)
T2 sequence (Q9XUB2 whole entry): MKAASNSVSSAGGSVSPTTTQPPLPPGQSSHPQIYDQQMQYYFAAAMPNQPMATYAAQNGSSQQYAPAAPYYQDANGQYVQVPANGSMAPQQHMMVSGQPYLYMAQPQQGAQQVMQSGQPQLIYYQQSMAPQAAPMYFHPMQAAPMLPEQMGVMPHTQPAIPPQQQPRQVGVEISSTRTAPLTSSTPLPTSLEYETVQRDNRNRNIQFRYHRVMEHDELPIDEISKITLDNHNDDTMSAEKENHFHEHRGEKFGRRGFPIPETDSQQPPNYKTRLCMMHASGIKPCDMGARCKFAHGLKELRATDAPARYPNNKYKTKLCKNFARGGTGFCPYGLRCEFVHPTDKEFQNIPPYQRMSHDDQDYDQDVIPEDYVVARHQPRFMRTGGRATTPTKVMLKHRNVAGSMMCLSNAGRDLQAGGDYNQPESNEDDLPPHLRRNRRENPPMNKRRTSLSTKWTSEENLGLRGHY

[13] = target: T3, Voltage-gated N-type calcium channel alpha-1B subunit/Amyloid beta A4 precursor protein-binding family A member 1 (Homo sapiens, UniProt Q00975+Q02410); assay type: protein assay
T3 sequence (Q00975 whole entry): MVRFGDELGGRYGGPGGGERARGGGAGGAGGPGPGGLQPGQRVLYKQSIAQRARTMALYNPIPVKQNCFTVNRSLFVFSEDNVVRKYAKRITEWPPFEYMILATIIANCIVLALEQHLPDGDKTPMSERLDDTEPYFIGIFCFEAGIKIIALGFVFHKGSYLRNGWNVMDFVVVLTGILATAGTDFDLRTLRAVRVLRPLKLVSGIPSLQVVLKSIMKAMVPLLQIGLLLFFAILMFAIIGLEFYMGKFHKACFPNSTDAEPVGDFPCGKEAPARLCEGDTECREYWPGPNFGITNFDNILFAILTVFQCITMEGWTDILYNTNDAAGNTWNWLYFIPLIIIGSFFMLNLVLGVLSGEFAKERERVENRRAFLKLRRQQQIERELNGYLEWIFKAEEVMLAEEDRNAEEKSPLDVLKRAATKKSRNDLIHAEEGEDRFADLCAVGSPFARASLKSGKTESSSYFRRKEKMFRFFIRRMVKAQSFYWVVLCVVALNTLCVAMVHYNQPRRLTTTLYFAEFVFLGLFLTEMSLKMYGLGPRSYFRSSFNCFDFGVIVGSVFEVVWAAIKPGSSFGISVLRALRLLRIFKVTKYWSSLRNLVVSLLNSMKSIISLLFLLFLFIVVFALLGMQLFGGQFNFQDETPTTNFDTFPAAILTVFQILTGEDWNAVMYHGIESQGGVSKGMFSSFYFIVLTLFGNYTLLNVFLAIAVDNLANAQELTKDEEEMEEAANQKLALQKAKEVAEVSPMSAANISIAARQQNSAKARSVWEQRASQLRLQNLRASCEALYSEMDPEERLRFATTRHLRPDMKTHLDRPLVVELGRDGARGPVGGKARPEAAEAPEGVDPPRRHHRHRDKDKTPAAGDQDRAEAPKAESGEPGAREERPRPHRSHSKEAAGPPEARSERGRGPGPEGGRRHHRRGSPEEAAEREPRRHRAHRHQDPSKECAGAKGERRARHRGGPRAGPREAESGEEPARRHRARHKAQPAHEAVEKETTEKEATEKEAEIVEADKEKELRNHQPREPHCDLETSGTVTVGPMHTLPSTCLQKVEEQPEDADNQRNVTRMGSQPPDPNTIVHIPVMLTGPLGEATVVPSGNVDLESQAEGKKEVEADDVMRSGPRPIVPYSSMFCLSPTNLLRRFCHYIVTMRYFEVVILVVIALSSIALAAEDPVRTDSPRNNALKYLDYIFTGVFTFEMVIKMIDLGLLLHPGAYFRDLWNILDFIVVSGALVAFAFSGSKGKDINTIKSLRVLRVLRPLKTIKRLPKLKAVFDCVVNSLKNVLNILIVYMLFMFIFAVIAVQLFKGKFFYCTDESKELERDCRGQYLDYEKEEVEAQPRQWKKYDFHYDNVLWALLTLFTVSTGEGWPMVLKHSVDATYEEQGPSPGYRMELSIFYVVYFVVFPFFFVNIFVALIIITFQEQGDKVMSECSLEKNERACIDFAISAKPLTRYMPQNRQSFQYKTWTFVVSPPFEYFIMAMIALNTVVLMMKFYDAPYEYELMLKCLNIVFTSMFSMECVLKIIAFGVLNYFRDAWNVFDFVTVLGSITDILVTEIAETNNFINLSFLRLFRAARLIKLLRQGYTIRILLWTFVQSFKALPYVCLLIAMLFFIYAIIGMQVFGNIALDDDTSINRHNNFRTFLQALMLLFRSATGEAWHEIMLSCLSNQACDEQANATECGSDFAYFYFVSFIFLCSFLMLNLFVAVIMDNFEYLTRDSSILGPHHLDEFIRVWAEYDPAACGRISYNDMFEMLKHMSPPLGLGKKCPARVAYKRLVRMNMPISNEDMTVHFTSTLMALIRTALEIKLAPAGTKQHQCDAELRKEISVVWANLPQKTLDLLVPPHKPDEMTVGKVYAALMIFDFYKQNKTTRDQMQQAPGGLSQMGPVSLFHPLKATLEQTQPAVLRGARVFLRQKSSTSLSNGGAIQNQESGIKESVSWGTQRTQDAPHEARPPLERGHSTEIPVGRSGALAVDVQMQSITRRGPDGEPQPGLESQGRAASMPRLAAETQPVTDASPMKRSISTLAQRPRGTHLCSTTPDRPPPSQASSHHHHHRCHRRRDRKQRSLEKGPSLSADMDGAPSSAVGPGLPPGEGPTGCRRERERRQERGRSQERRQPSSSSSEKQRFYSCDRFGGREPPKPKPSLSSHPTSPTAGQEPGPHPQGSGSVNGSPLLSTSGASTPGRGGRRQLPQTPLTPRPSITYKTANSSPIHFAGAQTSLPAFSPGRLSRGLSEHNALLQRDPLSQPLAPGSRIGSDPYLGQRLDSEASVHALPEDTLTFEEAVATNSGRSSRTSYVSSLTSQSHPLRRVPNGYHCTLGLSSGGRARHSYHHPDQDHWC
T3 sequence (Q02410 whole entry): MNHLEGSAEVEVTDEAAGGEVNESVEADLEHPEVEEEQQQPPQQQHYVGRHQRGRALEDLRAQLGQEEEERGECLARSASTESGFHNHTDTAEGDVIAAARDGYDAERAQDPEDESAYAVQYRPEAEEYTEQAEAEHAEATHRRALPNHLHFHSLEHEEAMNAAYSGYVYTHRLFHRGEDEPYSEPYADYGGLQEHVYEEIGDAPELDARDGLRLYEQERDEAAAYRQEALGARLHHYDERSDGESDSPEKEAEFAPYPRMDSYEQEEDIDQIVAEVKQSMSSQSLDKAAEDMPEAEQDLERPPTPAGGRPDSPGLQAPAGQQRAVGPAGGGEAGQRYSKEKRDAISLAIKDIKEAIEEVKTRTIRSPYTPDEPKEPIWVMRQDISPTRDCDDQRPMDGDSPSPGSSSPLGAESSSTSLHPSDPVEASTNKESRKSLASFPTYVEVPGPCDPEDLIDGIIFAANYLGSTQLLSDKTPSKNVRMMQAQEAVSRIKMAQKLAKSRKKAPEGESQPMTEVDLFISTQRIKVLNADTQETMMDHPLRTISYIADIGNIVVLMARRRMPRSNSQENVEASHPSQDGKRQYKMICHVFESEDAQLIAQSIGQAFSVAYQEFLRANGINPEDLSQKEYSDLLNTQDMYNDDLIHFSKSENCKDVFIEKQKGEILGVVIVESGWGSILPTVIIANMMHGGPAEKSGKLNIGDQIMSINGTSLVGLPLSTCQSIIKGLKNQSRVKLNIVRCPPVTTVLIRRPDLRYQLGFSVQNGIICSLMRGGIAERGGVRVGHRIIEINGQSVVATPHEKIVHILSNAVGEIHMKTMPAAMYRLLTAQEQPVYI

[14] = target: T3, Voltage-gated N-type calcium channel alpha-1B subunit/Amyloid beta A4 precursor protein-binding family A member 1; assay type: protein assay; remark: listed apart in the source
[15] = target: T4, Endoribonuclease toxin MazF (Escherichia coli K-12, UniProt P0AE70); test: MazF toxin RNase activators, dose response, biochemical, fluorescence, single-stranded RNA substrate, uHTS hits (AID 588481); assay type: functional
T4 sequence (P0AE70 whole entry): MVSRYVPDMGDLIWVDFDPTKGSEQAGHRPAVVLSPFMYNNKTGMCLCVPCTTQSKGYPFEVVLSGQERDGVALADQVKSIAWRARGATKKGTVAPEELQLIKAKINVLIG

[16] = target: T4, Endoribonuclease toxin MazF; test: fluorescent RNA oligo signal without MazF, dose response, counter-screen for MazEF activator project, biochemical, fluorescence, single-stranded RNase substrate (AID 588502); assay type: functional
[17] = target: T5, RNA-binding protein pos-1 (Caenorhabditis elegans, UniProt G5EF15); test: inhibitors of POS-1/mex-3 RNA binding, dose response, biochemical, fluorescence polarization (AID 1964);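 also: purified POS-1 fused to maltose binding protein made in E. coli; potency of compounds blocking POS-1 binding to fluorescent RNA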
T5 sequence (G5EF15 whole entry): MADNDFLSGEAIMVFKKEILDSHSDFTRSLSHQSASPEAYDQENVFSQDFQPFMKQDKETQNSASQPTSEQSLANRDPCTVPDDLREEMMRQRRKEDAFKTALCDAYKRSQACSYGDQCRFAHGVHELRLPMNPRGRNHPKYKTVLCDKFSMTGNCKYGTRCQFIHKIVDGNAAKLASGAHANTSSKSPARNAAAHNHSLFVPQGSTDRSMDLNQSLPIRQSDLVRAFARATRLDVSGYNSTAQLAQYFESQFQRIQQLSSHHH

[18] = off-target signal loss in HeLa-CEM21 co-culture – HeLa F-luc CTL cells, cherry-picked, counter-screen for HIV-1 Env fusion inhibitor project, dose response (AID 652040); assay type: functional, cell-based;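 also: potency for signal decrease marking cytotoxic or nonspecific inhibition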
[19] = Shn3 3'UTR reporter inhibitors, dose response, cell-based, Clone20 osteoblasts, firefly luciferase, cherry-picked (AID 624132); assay type: functional;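 also: firefly luciferase luminescence from reporter carrying the Shn3 3'UTR in osteoblasts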
[20] = control 3'UTR Renilla luciferase suppression, dose response, counter-screen for Shn3 inhibitor project, cell-based, Clone20-Shn3RL, cherry-picked (AID 624133); assay type: functional
[21] = ZM109 Env clade C HIV-1 fusion inhibitors, dose response, HeLa effector, CEM target cells, luciferase, cherry-pick (AID 652058); assay type: functional, cell-based
[22] = inhibitors of HIV Env-driven cell fusion, dose response, cherry-pick (AID 652057); assay type: functional, cell-based
[23] = HepG2 cell cytotoxicity, dose response, cytotoxicity control for Shn3 inhibitor project, CellTiter-Glo, cherry-picked (AID 624134); assay type: functional, cell-based
[24] = CEM21 lymphoblast cell cytotoxicity, dose response, cytotoxicity control for viral fusion inhibitor project, CellTiter-Glo luminescence, cherry-picked (AID 652042); assay type: functional, cell-based;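 also: potency for signal decrease meaning cytotoxicity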
[25] = inhibitors of clade B AD8 Env fusion, dose response, cell-based, cherry-pick (AID 652062); assay type: functional;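 also: luciferase signal from cell-cell fusion driven by HIV-1 clade B AD8 Env; potency is for inhibitors of fusion seen as a drop in luminescence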

## CCCCC1(CC(=O)OCC)C(=O)N(c2ccccc2)N(c2ccccc2)C1=O
HEK293 [1]
  EC50: > 59.6 µM (inactive)
HEK293 [2]
  EC50: > 59.6 µM (inactive)

## NS(=O)(=O)c1cc(C(=O)N=Nc2c(O)[nH]c3ccccc23)ccc1Cl
[3]
  IC50: > 100 µM (inactive)
[4]
  IC50: > 100 µM (inactive)
[5]
  IC50: 42.4 µM (active)

## CCCCCCCC[n+]1c(C)n(-c2ccccc2)c2ccc(NC(C)=O)cc21
INS1
  AC50: 2.41 µM (active)
[6]
  IC50: < 0.25 µM (active)
[7]
  EC50: > 60 µM (not active)
[8]
  IC50: < 0.25 µM (active)
[9]
  IC50: 1.44 µM (active)
[10]
  IC50: 2.66 µM (active)
[11]
  EC50: 0.768 µM (active)

## CCOC(=O)Cn1c2ccc(OC)cc2c2nc3ccccc3nc21
[12]
  EC50: 2.26 µM (active)
[13]
  IC50: > 50 µM (inactive)
[14]
  IC50: 4.34 µM (active)
[15]
  EC50: > 99 µM (inactive)
[16]
  EC50: 50.7 µM (inactive)
[17]
  EC50: 0.862 µM (inconclusive)

## CCCCCOc1ccc(C(=O)CCC(=O)NNC(=O)c2ccncc2)cc1
[3]
  IC50: > 100 µM (inactive)
[4]
  IC50: 25.6 µM (active)
[5]
  IC50: 14.7 µM (active)

## NC(CCc1ccccc1)c1csc(NC(=O)Nc2ccccc2Oc2ccccc2)n1 (stereo unspecified)
[18]
  AC50: 1.65 µM (active)
HEK293 [1]
  EC50: > 59.6 µM (inactive)
[19]
  AC50: 7.18 µM (active)
HEK293 [2]
  EC50: > 59.6 µM (inactive)
[20]
  AC50: 13.6 µM (active)
[21]
  AC50: 3.38 µM (active)
[22]
  AC50: 0.824 µM (active)
[23]
  AC50: 13.5 µM (active)
[24]
  AC50: 11.4 µM (active)
[25]
  AC50: 4.98 µM (active)
